According to patent US4000293A, “Method of inhibiting bacterial growth with certain selected 3-chloro-2-oxazolidinones” (Interx Research Corporation, priority 1975, dated 1976):

Experiments:
[1] = tested on: Staphylococcus aureus ATCC 6538; experiment: contact germicidal (bactericidal) time before and after 14 day incubation of solutions at 40° C., Table B; format: cell-based; conditions: before incubation, at initial ppm +Cl of the same line, pH 7.0
Experimental: (§1) The compounds of the invention and certain reference compounds were tested in the germidical efficiency test, a modification of the standard serial dilution test, against Staphylococcus aureus ATCC 6538. In the germicidal efficiency test, instead of determining the minimum inhibitory concentration as in the serial dilution test procedure, the time required to effect complete sterilization of the micro-organism when exposed to a given concentration of the test substance is determined. This procedure affords a basis of comparison of the time dependent efficacies of the various test substances which gives a measure not only of the germidical efficacy of the test species but, since as will be seen germicidal efficiency of the N-chloro compounds generally tends to diminish with time, apparently owing to decomposition of, and therefore dilution of, the active species, the test procedure also provides an indication of the efficacy to be expected at varying time intervals after solution of the test species in the application medium. The test procedure is described as follows: A stock solution of known concentration of each compound to be tested was prepared in 0.1M sodium dihydrogen phosphate buffered to pH 7.0. To 5 ml. of the test solution was added 0.2 ml. of an overnight broth culture containing from 6×10^6 to 8×10^6 organisms/ml. of Staphylococcus aureus ATCC 6538 and 5 g. of gelysate peptone and 3 g. of beef extract per 1000 ml. of water. At time intervals of 0.5, 1, 2, 3, 4, 5, 6, 7, 8, 9, 10, 15 and 30 minutes, a loop of this suspension was subcultured into 5 ml. of sterile nutrient broth (5 g. of gelysate peptone and 3 g. of beef extract/1000 ml. of water), and the samples were incubated at 37° C. for 7 days with daily observation for evidence of bacterial growth. The time interval in which no bacterial growth was observed after the incubation period in a particular sample was recorded as the end point.
(§2) The stabilities and the time-dependent efficacies of the claimed and reference species were determined by comparing the contact germicidal times and the initial and final concentrations of positive chlorine in solutions of the test species in 0.1M sodium dihydrogen phosphate buffered to pH 7.0 before and after 14 day incubation of the solutions at 40° C. The results are given in Table B below, where the columns headed "Bc Time" refers to the bactericidal time in minutes.

[2] = stability in the neat state (% chlorine by iodometric titration), Table D; format: physicochemical; conditions: 23° C.
Experimental: In those instances, the data were acquired at ambient temperature (approximately 23° C.). The method used was similar to that described above in which the rate of disappearance of "positive" chlorine was followed iodometrically by titration of iodine liberated from added potassium iodide with standard sodium thiosulfate solution. Samples of the compounds were individually sealed in ampoules and stored in the dark at 23° C. or 40° C. and weighed amounts removed from time to time for analysis.
For each of the compounds analyzed as indicated above, percent chlorine was plotted as ordinate against time in days as abscissa on semi-logarithmic paper and the points connected by a smooth curve for each compound.

[3] = hydrolytic stability in 0.1M sodium dihydrogen phosphate pH 7.0 at 40° (first-order kinetics), Table C; format: physicochemical; conditions: hydrolysis, 0.1M phosphate pH 7.0, 40°
Experimental: A further measure of the relative stabilities of the reference and claimed species was obtained by measuring the hydrolytic stability of the various species in 0.1M sodium dihydrogen phosphate buffered to pH 7.0 at 40°. For each species, the rate of change in the concentration of positive chlorine in the solution was measured by the volume of standard thiosulfate required to titrate a series of aliquots of a standard volume of the solution at various time intervals using potassium iodide/sodium thiosulfate as detailed above. The volumes of thiosulfate required to titrate each sample so obtained were interpreted as first-order kinetic processes. The hydrolytic stabilities of the reference and claimed species under the experimental conditions were characterized by the reaction rate constants and half-lives obtained from a linear regression analysis of the experimental data. The results obtained are given in Table C below and are also shown in FIG. 1 where the volumes in milliliters of standard thiosulfate required to titrate the positive chlorine in the various samples are plotted as ordinate against time in days as abscissa.

[4] = tested on: Staphylococcus aureus ATCC 6538; experiment: germicidal efficiency test (modified serial dilution; time to complete sterilization), Table A; format: cell-based; conditions: pH 7.0
Experimental: The compounds are thus useful as bactericidal agents.
as §1
(§3) The germicidal kill times so-obtained at various concentrations of the compounds of the invention and of certain reference compounds are given in Table A below. The compounds are identified in each case by the Example number above where the compounds are described. Here and elsewhere in the specification that follows, concentrations are expressed in parts per million (ppm) of "positive" chlorine, which was determined in each instance by addition of excess aqueous potassium iodide to an acidified solution of the test compound and titration of the iodine liberated with standard sodium thiosulfate solution.

[5] = positive chlorine concentration before and after 14 day incubation of solutions at pH 7.0, 40° C., Table B; format: physicochemical; conditions: 0.1M phosphate pH 7.0
Experimental: as §3, §2

Which “Bc Time, initial” value [1] does the source give for `CC1OC(=O)N(Cl)C1C` (stereo not shown) [Example 1C, 3-Chloro-4,5-dimethyl-2-oxazolidinone] here?
Its value is 4 min.

What about the “% Cl, neat” value ([2]; 0 Hrs.) of the same molecule?
The value was 21.8%.

What about the “% Cl, neat” value ([2]; 3 Hrs.) of the same molecule?
The value was 20.8%.

And the “% Cl, neat” value ([2]; 5 Hrs.)?
Its value is 8.2%.

And the “% Cl, neat” value ([2]; 7.5 Hrs.)?
Its value is 0.47%.

What about the “% Cl, neat” value ([2]; 24 Hrs.) of the same molecule?
Its value is 0.17%.

What about the half-life ([3]; 0.1m phosphate buffer) of the same molecule?
Its half-life is 38.5 h.

And the “Rate Constant k” value ([3]; first-order)?
Its value is 0.018 h⁻¹.

And the “Bactericidal Time” value ([4]; 117 ppm +Cl)?
The value was 10 min.

What about the “Bactericidal Time” value ([4]; 295 ppm +Cl) of the same molecule?
Its value is 5 min.

What about the “Bactericidal Time” value ([4]; 490 ppm +Cl) of the same molecule?
The value was 4 min.

And the “Final Concn. of positive chlorine” value ([5]; after 14 day incubation at 40° C.)?
The value was 51 ppm +Cl.

And the “Initial Concn. of positive chlorine” value ([5]; before incubation)?
Its value is 490 ppm +Cl.
